# In patent publication US10624944B2, “Anti-inflammatory peptides for treating non-alcoholic steatohepatitis (NASH)” (Creative Bio-Peptides Inc., priority 2017, dated 2020):
# Where two headings read alike, the source gives them in different places. Square brackets hold non-standard residues; d marks the D form. Ends that are not written are not given here.
# Experiments:
# [1] = system: inflammatory cytokine levels; settings: Hu; cited from earlier work
# TLR4/MyD88 [2] = settings: Rat; cited from earlier work
# [3] = system: high fat diet mouse model of NAFLD; settings: cited from earlier work
# CCR2 [4] = biological target: T1, CCR2 (Homo sapiens, UniProt P41597); test: CCL2 (MCP-1)-elicited chemotaxis of human monocytes; format: cell-based; set-up: endogenous in cells; host or cells: human monocytes; settings: FIG. 3; methods similar to FIG. 2; low concentration
# Experimental: Monocytes were treated with the indicated doses of RAP-103 for 30 min before chemotaxis against human CCL2 (MCP-1) or CCL4 (MIP-1β) (both 50 ng/mL) for 90 min. Data (chemotactic index) are presented as mean±SEM. The chemotactic index for MCP-1 without RAP-103 was 2.5-3.5 times over control, whereas for MIP-1 ? without RAP-103, it was approximately 2 times over control. Data are presented as mean±SEM. (*P<0.05, **P<0.01 vs RAP-103 untreated). Data are from [Padi, 2012, FIG. 1]. […] Dual-chemokine CCR2/CCR5 receptor antagonists may have added therapeutic value by blocking multiple inflammatory pathways.
# Methods are similar to those in FIG. 2.
# CCR2 [5] = biological target: T1, CCR2; settings: 30 min pretreatment; CCL2 50 ng/mL for 90 min; FIG. 2; cited from earlier work
# [6] = system: chemokines, chemokine receptors and cytokines; settings: Rat, oral gavage 0.05-1 mg/kg for 7 days, nerve injured
# Description: The specific experimental details are provided in Padi, 2012 (7).
# TLR4/MyD88 [7] = settings: iDCs treated at 10^-12 M for 30 min, then LPS 100 ng/ml, analyzed after 48 hrs
# Experimental: To determine whether all-D-TTNYT (SEQ ID NO:1) blocks maturation of antigen-presenting dendritic cells, human PBMC's were isolated from peripheral blood by Ficoll-Paque centrifugation and then monocytes were isolated by negative selection using immunobeads (Miltenyi). Human monocyte derived immature dendritic cells (iDCs) were then generated by treating monocytes with GM-CSF/IL4.
# After 30 min LPS (100 ng/ml) was added to the cells and cells were analyzed after 48 hrs. for surface maturation markers using fluorescent labeled antibodies by flow cytometry.
# [8] = system: human monocyte derived immature dendritic cells (iDCs)
# Description: In liver, TLR4 is expressed by all parenchymal and non-parenchymal cell types, and contributes to tissue damage caused by a variety of etiologies. TLR4 signaling occurs in hepatic stellate cells (HSCs), the major fibrogenic cell type in injured liver, and mediates an inflammatory phenotype leading to fibrogenesis.
# CCR5 = CCR5 (Homo sapiens, UniProt P51681); settings: 30 min pretreatment; CCL4 50 ng/mL for 90 min; FIG. 2; cited from earlier work
# response to bradykinin = settings: amounts up to 50,000 times the standard challenge of bradykinin; cited from earlier work
# [9] = listed as all-D-pentapeptide TTNYT
# T1 sequence (P41597 whole entry): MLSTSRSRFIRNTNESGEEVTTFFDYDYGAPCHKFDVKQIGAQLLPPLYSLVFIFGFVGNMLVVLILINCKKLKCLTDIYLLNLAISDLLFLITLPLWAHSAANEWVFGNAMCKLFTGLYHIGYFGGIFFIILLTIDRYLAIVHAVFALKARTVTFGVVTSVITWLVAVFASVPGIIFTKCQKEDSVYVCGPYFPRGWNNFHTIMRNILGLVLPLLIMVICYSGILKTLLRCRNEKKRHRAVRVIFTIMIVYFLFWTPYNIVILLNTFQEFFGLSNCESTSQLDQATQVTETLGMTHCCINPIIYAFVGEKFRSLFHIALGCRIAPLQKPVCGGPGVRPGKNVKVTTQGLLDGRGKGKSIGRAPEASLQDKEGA
# Sequence of CCR5 (P51681 whole entry): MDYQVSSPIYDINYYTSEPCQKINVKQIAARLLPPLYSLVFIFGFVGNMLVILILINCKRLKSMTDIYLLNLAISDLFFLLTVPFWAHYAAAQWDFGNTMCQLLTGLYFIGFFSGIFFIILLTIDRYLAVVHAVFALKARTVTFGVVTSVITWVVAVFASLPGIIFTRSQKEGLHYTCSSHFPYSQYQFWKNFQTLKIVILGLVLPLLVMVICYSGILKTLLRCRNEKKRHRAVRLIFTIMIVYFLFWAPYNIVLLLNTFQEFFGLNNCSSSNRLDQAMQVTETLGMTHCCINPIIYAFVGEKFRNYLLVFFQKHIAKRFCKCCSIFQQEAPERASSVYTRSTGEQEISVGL
substance,measurement,setting,value
Dala1-peptide T-amide [DAPTA],Change of ICAM-1,[1],decrease
same,Change of IL-1,[1],decrease
same,Change of IL-6,[1],decrease
same,Change of IL-8,[1],decrease
same,Change of IL-23,[1],decrease
same,Change of NFkB,[1],decrease
same,Change of STAT3,[1],decrease
same,Change of TNFα,[1],decrease
same,Change of TLR4/MyD88,TLR4/MyD88 [2],decrease
Maraviroc,CCL5/RANTES expression,[3],significantly lower
same,hepatic steatosis,[3],ameliorated hepatic steatosis
all-D-NTSYR ([dN][dT][dS][dY][dR]) [all-D-amino acid pentapeptide NTSYR],CCL2 human monocyte chemotaxis,CCR2 [4],antagonists
all-D-SSTYR ([dS][dS][dT][dY][dR]) [all-D-amino acid pentapeptide SSTYR],CCL2 human monocyte chemotaxis,CCR2 [4],antagonists
all-D-TTNYT,CCL2 (MCP-1) human monocyte chemotaxis (chemotactic index),CCR2 [5],dual-antagonist
same,Change of CCR2,[6],decrease
same,Change of CCR5,[6],decrease
same,Change of IL-6,[6],decrease
same,Change of IL-β,[6],decrease
same,Change of MCP-1 (CCL2),[6],decrease
same,Change of MIP-1α (CCL3),[6],decrease
same,Change of TNFα,[6],decrease
same,Change of CCR2,[6]; [9],lowering expression
same,Change of CCR5,[6]; [9],lowering expression
same,Change of IL-β,[6]; [9],lowering expression
same,Change of MCP-1 (CCL2),[6]; [9],lowering expression
same,Change of MIP-1α (CCL3),[6]; [9],lowering expression
same,Change of TNFα,[6]; [9],lowering expression
same,"expression of maturation markers CD86, HLA-DR, CD58 and ICAM1 induced by TLR4/MyD88 activation (LPS)",TLR4/MyD88 [7],reduces expression of all the maturation markers
same,DC maturation of the four markers caused by LL37,[8],no effect
same,CCL4 (MIP-1β) human monocyte chemotaxis (chemotactic index),CCR5,dual-antagonist
all-D-TTSYT ([dT][dT][dS][dY][dT]) [all-D-amino acid pentapeptide TTSYT],CCL2 human monocyte chemotaxis,CCR2 [4],antagonists
all-D-bradykinin,inhibition of the response to bradykinin or bradykinin-like effect,response to bradykinin,"neither any inhibition of the response to bradykinin, or any bradykinin-like effect"
